Measurements from patent publication US4419508A, “20-Dihydro-20-deoxy-23-demycinosyltylosin and process for its production” (Eli Lilly and Company, priority 1981, dated 1983).
≈ marks a conversion by molar mass, not a printed value. Entries after “also recorded” stand apart in the source; their conditions may differ. Read-outs that look alike come from different tables or passages of the source.

Experiments:
[1] = tested on: Staphylococcus aureus NRRL B313; assay type: cell-based; conditions: NRRLB313
[2] = tested on: Staphylococcus aureus V41; assay type: cell-based
[3] = tested on: Staphylococcus aureus X400; assay type: cell-based
[4] = tested on: Staphylococcus epidermidis EPI1; assay type: cell-based
[5] = tested on: Staphylococcus epidermidis EPI2; assay type: cell-based; conditions: free base, agar dilution
[6] = tested on: Streptococcus pyogenes C203; assay type: cell-based
[7] = tested on: Streptococcus pneumoniae Park 1; assay type: cell-based
[8] = tested on: Streptococcus faecium ATCC 9790; assay type: cell-based; conditions: Enterococcus faecium, ATCC9790
[9] = tested on: Streptococcus sp. group D 9960; assay type: cell-based
[10] = tested on: Haemophilus influenzae C.L.; assay type: cell-based
[11] = tested on: Haemophilus influenzae 76; assay type: cell-based
[12] = tested on: Escherichia coli EC14; assay type: cell-based; conditions: free base, agar dilution
Text: (§1) Table 3 summarizes the minimal inhibitory concentrations (MIC), as measured by standard agar-dilution assays, at which DH-DO-DMT and DH-DO-OMT (as free bases) inhibit certain bacteria.

[13] = tested on: Escherichia coli N10; assay type: cell-based; conditions: free base, agar dilution
Text: as §1

[14] = tested on: Klebsiella pneumoniae KAE; assay type: cell-based; conditions: free base, agar dilution
Text: as §1

[15] = tested on: Shigella sonnei N9; assay type: cell-based; conditions: free base, agar dilution
Text: as §1

[16] = tested on: Escherichia coli TEM; assay type: cell-based
[17] = tested on: Klebsiella pneumoniae X26; assay type: cell-based
[18] = Solubility; assay type: physicochemical; conditions: for solubility in polar organic solvents: free bases, acetone, methanol, ethanol, chloroform, dimethylformamide, dimethyl sulfoxide; for solubility in water: free bases (rows) or acid addition salts (sets)
[19] = tested on: pathogenic bacteria, especially gram-positive bacteria and Mycoplasma species; assay: Antibacterial activity (in words); assay type: cell-based; conditions: qualitative statement
Text: as §1

[20] = tested on: Clostridium difficile 2994; assay: MIC against anaerobic bacteria, standard agar-dilution assay; assay type: cell-based; conditions: Clostridioides difficile, end point after 24 hours
[21] = tested on: Clostridium perfringens 81; assay: microbe, parasite or virus in culture; assay type: cell-based; conditions: Clostridium perfringens, 81, 24 h
[22] = tested on: Bacteroides thetaiotaomicron 1438; assay: MIC against anaerobic bacteria, standard agar-dilution assay; assay type: cell-based; conditions: Bacteroides thetaiotaomicron, 1438, 24 h
Description: (§2) Table 4 summarizes the MIC's at which DH-DO-OMT inhibits these bacteria. The MIC's were determined using a standard agar-dilution assay and reading the end point after 24 hours.

[23] = tested on: Clostridium septicum 1128; assay: as above; assay type: cell-based; conditions: end point after 24 hours
Description: as §2

[24] = tested on: Peptococcus prevoti 1281; assay: as above; assay type: cell-based; conditions: end point after 24 hours
Description: as §2

[25] = tested on: Eubacterium aerofaciens 1235; assay: as above; assay type: cell-based; conditions: Collinsella aerofaciens, end point after 24 hours
[26] = tested on: Peptococcus asaccharolyticus 1302; assay: as above; assay type: cell-based; conditions: Peptoniphilus asaccharolyticus, end point after 24 hours
[27] = tested on: Peptostreptococcus anaerobius 1428; assay: as above; assay type: cell-based; conditions: end point after 24 hours
[28] = tested on: Peptostreptococcus intermedius 1264; assay: as above; assay type: cell-based; conditions: end point after 24 hours
[29] = tested on: Propionibacterium acnes 79; assay: as above; assay type: cell-based; conditions: Cutibacterium acnes, end point after 24 hours
[30] = tested on: Bacteroides fragilis 111; assay: as above; assay type: cell-based; conditions: end point after 24 hours
[31] = tested on: Bacteroides fragilis 1877; assay: as above; assay type: cell-based; conditions: end point after 24 hours
[32] = tested on: Bacteroides fragilis 1936B; assay: as above; assay type: cell-based; conditions: end point after 24 hours
[33] = tested on: Bacteroides melaninogenicus 1856/28; assay: as above; assay type: cell-based; conditions: end point after 24 hours
[34] = tested on: Bacteroides melaninogenicus 2736; assay: as above; assay type: cell-based; conditions: end point after 24 hours
[35] = tested on: Bacteroides vulgatis 1211; assay: as above; assay type: cell-based; conditions: end point after 24 hours
[36] = tested on: Bacteroides corrodens 1874; assay: as above; assay type: cell-based; conditions: Eikenella corrodens, end point after 24 hours
[37] = tested on: Fusobacterium symbiosum 1470; assay: as above; assay type: cell-based; conditions: end point after 24 hours
[38] = tested on: Fusobacterium necrophorum 6054A; assay: as above; assay type: cell-based; conditions: end point after 24 hours
[39] = tested on: Chlamydia trachomatis; assay: MIC, Chlamydia trachomatis grown in cell culture; assay type: cell-based
Text: (§3) In addition, DH-DO-OMT inhibits Mycoplasma species.

[40] = tested on: M. gallisepticum; assay: MIC against Mycoplasma species; assay type: cell-based; conditions: Mycoplasmoides gallisepticum
Text: as §3

[41] = tested on: M. synoviae; assay: MIC against Mycoplasma species; assay type: cell-based; conditions: Mycoplasmopsis synoviae
Text: as §3

[42] = tested on: Staphylococcus aureus 3055; assay: In vivo activity against experimental infections in mice; conditions: two doses
[43] = tested on: Streptococcus pyogenes C203; assay: as above; conditions: free base, oral, two doses, bacterial challenge 64 LD50
[44] = tested on: Streptococcus pneumoniae Park I; assay: as above; conditions: po

## CCC1CC(C)C(=O)C=CC(C)=CC(CO)C(CC)OC(=O)CC(O)C(C)C1OC1OC(C)C(OC2CC(C)(O)C(O)C(C)O2)C(N(C)C)C1O (stereo not drawn) [DH-DO-DMT, 20-dihydro-20-deoxy-23-demycinosyltylosin]
[1]; Staphylococcus aureus
  MIC: 128 µg/mL (≈ 176 µM)
[2]; Staphylococcus aureus, V41
  MIC: 128 µg/mL (≈ 176 µM)
[3]; Staphylococcus aureus, X400
  MIC: > 128 µg/mL
[4]
  MIC: 128 µg/mL (≈ 176 µM)
[5]
  MIC: 64 µg/mL (≈ 87.9 µM)
[6]; Streptococcus pyogenes, C203
  MIC: > 128 µg/mL
[7]; PARK1
  MIC: > 128 µg/mL
[8]
  MIC: > 128 µg/mL
[9]; Streptococcus
  MIC: > 128 µg/mL
[10]; Haemophilus influenzae
  MIC: > 128 µg/mL
[11]; Haemophilus influenzae, 76
  MIC: > 128 µg/mL
[12]
  MIC: > 128 µg/mL
[13]
  MIC: > 128 µg/mL
[14]
  MIC: > 128 µg/mL
[15]
  MIC: > 128 µg/mL
[16]; Escherichia coli
  MIC: > 128 µg/mL
[17]; Klebsiella pneumoniae, X26
  MIC: > 128 µg/mL
[18]
  solubility in polar organic solvents: soluble in water and in most polar organic solvents
  solubility in water: soluble in water
[19]
  antibacterial activity: inhibit the growth of pathogenic bacteria, especially gram-positive bacteria and Mycoplasma species; also recorded: some antibacterial activity; also recorded: active against gram-positive microorganisms and Mycoplasma species

## CCC1CC(C)C(=O)C=CC(C)=CC(CO)C(CC)OC(=O)CC(O)C(C)C1OC1OC(C)C(O)C(N(C)C)C1O (stereo not drawn) [DH-DO-OMT, 20-Dihydro-20-deoxy-5-O-mycaminosyltylonolide]
[1]; free base, agar dilution, Staphylococcus aureus NRRL B313, read-out: MIC
  MIC: 4 µg/mL (≈ 6.85 µM)
[2]; free base, agar dilution, Staphylococcus aureus V41, read-out: MIC
  MIC: 4 µg/mL (≈ 6.85 µM)
[3]; free base, agar dilution, Staphylococcus aureus X400, read-out: MIC
  MIC: 8 µg/mL (≈ 13.7 µM)
[4]; read-out: MIC
  MIC: 8 µg/mL (≈ 13.7 µM)
[5]
  MIC: 8 µg/mL (≈ 13.7 µM)
[6]; free base, agar dilution, Streptococcus pyogenes C203, read-out: MIC
  MIC: 8 µg/mL (≈ 13.7 µM)
[7]; PARK1, read-out: MIC
  MIC: 8 µg/mL (≈ 13.7 µM)
[8]; free base, agar dilution, Streptococcus faecium ATCC 9790, read-out: MIC
  MIC: 16 µg/mL (≈ 27.4 µM)
[9]; free base, agar dilution, Streptococcus sp. group D 9960, read-out: MIC
  MIC: 16 µg/mL (≈ 27.4 µM)
[10]; free base, agar dilution, Haemophilus influenzae C.L., read-out: MIC
  MIC: 16 µg/mL (≈ 27.4 µM)
[11]; free base, agar dilution, Haemophilus influenzae 76, read-out: MIC
  MIC: 16 µg/mL (≈ 27.4 µM)
[12]
  MIC: > 128 µg/mL
[13]
  MIC: > 128 µg/mL
[14]
  MIC: > 128 µg/mL
[15]
  MIC: > 128 µg/mL
[16]; free base, agar dilution, Escherichia coli TEM, read-out: MIC
  MIC: 64 µg/mL (≈ 110 µM)
[17]; free base, agar dilution, Klebsiella pneumoniae X26, read-out: MIC
  MIC: 4 µg/mL (≈ 6.85 µM)
[20]
  MIC: 2 µg/mL (≈ 3.43 µM)
[21]
  MIC: 2 µg/mL (≈ 3.43 µM)
[22]
  MIC: > 8 µg/mL
[23]
  MIC: 2 µg/mL (≈ 3.43 µM)
[24]
  MIC: > 8 µg/mL
[25]
  MIC: 2 µg/mL (≈ 3.43 µM)
[26]
  MIC: > 8 µg/mL
[27]
  MIC: > 8 µg/mL
[28]
  MIC: > 8 µg/mL
[29]
  MIC: 2 µg/mL (≈ 3.43 µM)
[30]
  MIC: > 8 µg/mL
[31]
  MIC: > 8 µg/mL
[32]
  MIC: > 8 µg/mL
[33]
  MIC: > 8 µg/mL
[34]
  MIC: > 8 µg/mL
[35]
  MIC: > 8 µg/mL
[36]
  MIC: > 8 µg/mL
[37]
  MIC: > 8 µg/mL
[38]
  MIC: 8 µg/mL (≈ 13.7 µM)
[39]
  MIC: 0.5 µg/mL (≈ 0.857 µM)
[40]
  MIC: 12.5 µg/mL (≈ 21.4 µM)
[41]
  MIC: 12.5 µg/mL (≈ 21.4 µM)
[42]; Staphylococcus aureus, 3055, free base, oral, bacterial challenge 100 LD50
  ED50: 44 mg/kg
[42]; Staphylococcus aureus, 3055, sc, free base, subcutaneous, bacterial challenge 221 LD50
  ED50: 37.3 mg/kg
[43]
  ED50: 75.3 mg/kg
[44]
  ED50: 224 mg/kg
[18]
  solubility in polar organic solvents: soluble in water and in most polar organic solvents
  solubility in water: soluble in water
[19]
  antibacterial activity: inhibit the growth of pathogenic bacteria, especially gram-positive bacteria and Mycoplasma species; also recorded: active against gram-positive microorganisms and Mycoplasma species
